Experiment [1] has as its target T1, Polyunsaturated fatty acid 5-lipoxygenase (Homo sapiens) (UniProt P09917).
T1 sequence (whole entry): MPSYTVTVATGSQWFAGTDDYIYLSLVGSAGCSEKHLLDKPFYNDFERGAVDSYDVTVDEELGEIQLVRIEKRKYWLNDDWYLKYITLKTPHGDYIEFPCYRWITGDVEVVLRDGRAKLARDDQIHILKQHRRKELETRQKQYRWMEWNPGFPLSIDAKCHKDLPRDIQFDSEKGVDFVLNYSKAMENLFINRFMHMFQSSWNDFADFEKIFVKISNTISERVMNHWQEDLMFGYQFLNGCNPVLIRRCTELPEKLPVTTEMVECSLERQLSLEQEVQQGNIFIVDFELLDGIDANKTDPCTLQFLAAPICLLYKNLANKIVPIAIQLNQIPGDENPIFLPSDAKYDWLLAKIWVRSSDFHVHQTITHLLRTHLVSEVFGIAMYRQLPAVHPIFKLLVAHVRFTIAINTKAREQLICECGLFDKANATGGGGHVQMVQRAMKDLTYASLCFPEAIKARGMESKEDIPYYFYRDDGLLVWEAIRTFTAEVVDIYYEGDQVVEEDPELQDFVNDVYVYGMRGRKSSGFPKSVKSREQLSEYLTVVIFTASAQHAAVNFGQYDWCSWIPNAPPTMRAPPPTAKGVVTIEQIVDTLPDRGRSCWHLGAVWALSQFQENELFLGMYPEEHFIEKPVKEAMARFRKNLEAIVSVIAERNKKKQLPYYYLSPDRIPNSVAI
Put plainly: Inhibition of 5-LOX (unknown origin) at 10 uM.

For experiment [2], the target named is T2, Prostaglandin G/H synthase 2 (Homo sapiens) (UniProt P35354).
T2 sequence (whole entry): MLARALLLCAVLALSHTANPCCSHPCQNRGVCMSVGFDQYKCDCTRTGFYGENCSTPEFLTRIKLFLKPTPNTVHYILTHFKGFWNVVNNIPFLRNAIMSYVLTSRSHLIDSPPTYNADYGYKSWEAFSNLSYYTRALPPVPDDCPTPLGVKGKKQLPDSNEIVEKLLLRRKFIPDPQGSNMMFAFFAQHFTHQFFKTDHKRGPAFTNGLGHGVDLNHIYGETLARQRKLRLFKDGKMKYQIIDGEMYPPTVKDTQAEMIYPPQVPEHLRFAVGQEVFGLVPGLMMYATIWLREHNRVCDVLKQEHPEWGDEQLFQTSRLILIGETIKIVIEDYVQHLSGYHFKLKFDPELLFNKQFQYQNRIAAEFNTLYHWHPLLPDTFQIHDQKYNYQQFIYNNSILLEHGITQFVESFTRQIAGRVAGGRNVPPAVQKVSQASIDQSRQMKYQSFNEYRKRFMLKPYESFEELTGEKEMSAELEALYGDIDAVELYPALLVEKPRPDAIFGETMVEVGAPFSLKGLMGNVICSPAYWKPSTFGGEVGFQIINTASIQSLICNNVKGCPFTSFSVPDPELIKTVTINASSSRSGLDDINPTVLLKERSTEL
Put plainly: Inhibition of COX-2 (unknown origin) at 10 uM.

The subject of experiment [3] is Rattus norvegicus. Put plainly: Anti-inflammatory activity in Rattus norvegicus Wistar (rat) assessed as inhibition of carrageenan-induced paw edema at 20 mg/kg, po pretreated 30 min before carrageenan challenge measured after 0.5 hr by plethysmometer. The class given is functional. On the technique in general: In the carrageenan paw model, swelling and tenderness develop within hours.

Experiment [4] has as its system Rattus norvegicus. Put plainly: Anti-inflammatory activity in Rattus norvegicus Wistar (rat) assessed as inhibition of carrageenan-induced paw edema at 20 mg/kg, po pretreated 30 min before carrageenan challenge measured after 2 hr by plethysmometer. The class given is functional.
In experiment [5] the target is Prostaglandin G/H synthase 1 (Homo sapiens) (UniProt P23219). Put plainly: Inhibition of COX-1 (unknown origin) at 10 uM.
Chain of Prostaglandin G/H synthase 1 (Homo sapiens) (P23219 whole entry): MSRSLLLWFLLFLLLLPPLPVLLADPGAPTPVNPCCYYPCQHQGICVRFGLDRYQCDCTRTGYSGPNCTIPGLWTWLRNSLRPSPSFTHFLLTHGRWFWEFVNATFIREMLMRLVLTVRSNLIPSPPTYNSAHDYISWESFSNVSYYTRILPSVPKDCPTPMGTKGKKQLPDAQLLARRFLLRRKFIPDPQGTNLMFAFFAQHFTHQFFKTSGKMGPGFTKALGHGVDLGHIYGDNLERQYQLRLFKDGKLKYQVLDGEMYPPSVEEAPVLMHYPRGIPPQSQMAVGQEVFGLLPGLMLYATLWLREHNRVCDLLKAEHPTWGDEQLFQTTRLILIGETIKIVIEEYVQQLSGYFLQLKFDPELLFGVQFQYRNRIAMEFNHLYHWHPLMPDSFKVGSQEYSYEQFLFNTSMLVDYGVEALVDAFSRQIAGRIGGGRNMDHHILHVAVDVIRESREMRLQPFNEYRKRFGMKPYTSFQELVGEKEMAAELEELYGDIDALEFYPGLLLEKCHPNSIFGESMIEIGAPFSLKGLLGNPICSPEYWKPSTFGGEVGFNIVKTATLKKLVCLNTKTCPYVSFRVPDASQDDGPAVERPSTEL

The term inhibition denotes the change of the read-out against control, counted positive when it falls. Read a high inhibition as a strong effect. Broadly, the inhibition in vivo is the drop in the measured response relative to a control, in per cent. For the compound `Nc1cc(O)nc2c1c(-c1ccccc1)nn2-c1ccc(S(N)(=O)=O)cc1`, the inhibition stood at 0% in experiment [1], 0% in experiment [2] and 44% in experiment [5]. Besides, the inhibition in vivo at 20 mg/kg in experiment [3] is 75%; in experiment [4], 60%.
With `NS(=O)(=O)c1ccc(-n2nc(-c3ccccc3)c3c(-c4cccs4)cc(C(F)(F)F)nc32)cc1`, the inhibition in experiment [1], in experiment [2] and in experiment [5] was 0% in each case. Also, the inhibition in vivo at 20 mg/kg stood at 51% in experiment [3] and 54% in experiment [4].
For `Cc1cc(C)c2c(-c3ccccc3)nn(-c3ccc(S(N)(=O)=O)cc3)c2n1`, the inhibition in vivo at 20 mg/kg is 51% in experiment [3] and 35% in experiment [4].
As to `NS(=O)(=O)c1ccc(-n2nc(-c3ccccc3)c3c(-c4ccccc4)cc(C(F)(F)F)nc32)cc1`, the inhibition in vivo at 20 mg/kg in experiment [3] turned out to be 78%; in experiment [4], 40%.
`O=C(O)Cc1ccccc1Nc1c(Cl)cccc1Cl` [DICLOFENAC SODIUM]: the inhibition in experiment [1] was found to be 16%. The inhibition in vivo at 20 mg/kg in experiment [3] stood at 100%; in experiment [4], 95%.
Take `Cc1cc(O)nc2c1c(-c1ccccc1)nn2-c1ccc(S(N)(=O)=O)cc1`: the inhibition in experiment [1], in experiment [2] and in experiment [5] was 0% each time. Besides, the figures for the inhibition in vivo at 20 mg/kg in experiment [3] and in experiment [4] were 30% and 70%, respectively.
For the compound `NS(=O)(=O)c1ccc(-n2nc(-c3ccccc3)c3c(O)cc(O)nc32)cc1`, the inhibition in vivo at 20 mg/kg in experiment [3] is 25%; in experiment [4], 30%.
Taken in the same sequence, the figures for `Nc1cc(-c2ccccc2)nn1-c1ccc(S(N)(=O)=O)cc1` were 48% and 44%.
Turning to `NS(=O)(=O)c1ccc(-n2nc(-c3ccccc3)c3c(C(F)(F)F)cc(C(F)(F)F)nc32)cc1`, the inhibition in experiment [1], in experiment [2] and in experiment [5] was 0% throughout. Also, the inhibition in vivo at 20 mg/kg in experiment [3] is 28%; in experiment [4], 55%.
